What was measured:
Format in all cases: cell-based
C. albicans [1] = assay: Yeast-to-hyphae transition (FBS-induced hyphae formation); conditions: FBS-induced (10%), ILs 25 µM, 2 h, 37 °C; control 94 ± 0.6%
Protocol: Fungal adhesion to biomedical surfaces is strongly related to the structure of the cell wall, and the presence of adhesins (Als proteins) on the surface of the cell. In turn, the progression to biofilm formation is dependent on the ability of C. albicans to form hyphae. In conditions similar to those above (ILs conc. = 25 µM), we examined C. albicans cell wall integrity, its ability to form hyphae, and the level of ALS genes expression, encoding Als1 and Als5 adhesins (Figure 3). […] Despite some reduction, the result was not statistically significant (p = 0.12). On the other hand, after the treatment with IL 2a, the expression of ALS1 and ALS5 genes was reduced by 50 or 55%, respectively (Figure 3C). The results were statistically significant in both cases (p = 0.04 for either ALS gene). However, in case of compounds with alkyl substituents (1a and 1b), the reduction of gene expression was to a lesser degree. […] Despite observing a chain-length dependence, the results were not statistically significant (p = 0.07 for both ALS gene after treatment with 1b).
Experiments were performed as described before, with modifications. YPD-grown C. albicans were pelleted, washed with fresh YPD medium and resuspended in YPD medium (OD600 = 0.4). The suspensions were treated with ILs (conc. = 25 µM) and FBS (final conc. = 10%) for 2 h at 37 °C. The samples were observed under the Zeiss Axio Imager A2 microscope equipped with Canon PowerShot G10 camera for assessment of cell morphology. For quantitative estimation, cells of each assay were counted in three independent repetitions determining the percentage of hyphae forming cells.

C. glabrata = assay: Detachment of adherent cells from polystyrene (crystal violet); conditions: C. glabrata on polystyrene, 2 h treatment
Protocol: (§1) Thus, for the evaluation of ILs on fungal adhesion, higher concentrations were used, corresponding to 1, 2 and 4 times the MIC90 values (Figure 1).
(§2) Figure 1 Detachment of adherent Candida spp. cells after 2 h incubation on polystyrene surfaces by ionic liquids (ILs) (A) or amphotericin B (AMB) (B) (means ± SD; n = 3). Results are presented as percentage of adherent cells relative to untreated controls (100% adhesion). Statistical analysis of detachment at each concentration was performed towards corresponding control experiments (fungi untreated by ILs or AMB = 100% adhesion) (*, p < 0.05 and **, p < 0.01).
(§3) Post-adherence treatment with ILs was performed in a similar manner to that described previously by our team. Candida spp. suspensions were prepared by centrifuging YPD-grown cultures and resuspending fungal mass in PBS to an OD600 = 0.6. Sterile 96-well plates were inoculated with the prepared suspensions and incubated for 2 h at 37 °C to induce fungal adhesion. Afterwards, adherent cells were washed with PBS to remove planktonic cells and treated with ILs (concentrations equivalent to 1, 2 or 4 × MIC90 for each fungi) for 2 h at 37 °C. Then, each well was washed with PBS and adherent cells were fixed with 0.1% CV solution for 5 min, and washed with PBS. Cells were then treated with a solution of isopropanol 0.04 N HCL with 0.1% SDS to permeabilize adherent cells and release the CV dye. The absorbance of CV was measured at 590 nm (ASYS UVM 340 Biogenet). The percentage of cells that were removed was determined in comparison to adherent cells treated with PBS only (designated 100% adhesion).

C. krusei = assay: as above; conditions: C. krusei on polystyrene, 2 h treatment; over MIC, 2 × MIC and 4 × MIC
Protocol: as §1, §2, §3

C. albicans [2] = assay: as above; conditions: C. albicans on polystyrene, 2 h treatment; over MIC, 2 × MIC and 4 × MIC
Protocol: as §1, §2, §3

C. parapsilosis = assay: as above; conditions: C. parapsilosis on polystyrene, 2 h treatment, 2 × MIC and 4 × MIC
Protocol: as §1, §2, §3

C. krusei ATCC6258 = assay: Minimal inhibitory and fungicidal concentrations (broth microdilution, CLSI M27-A3 modified); conditions: Pichia kudriavzevii, 28 °C; for MFC: 120 h, replated on YPD agar, 5 days, read-out: Minimal fungicidal concentration (MFC); for MIC90: ≥90% growth inhibition, 48 h, YPD, read-out: Minimal inhibitory concentration (MIC90)
Protocol: (§4) Experiments were performed according to the Clinical and Laboratory Standards Institute (2008), 3rd ed. M27-A3 [51], with modifications described previously. Briefly, MICs were determined by serially diluting ILs in YPD medium in sterile 96-well plates (Sarstedt) and inoculating with fungal suspensions (final OD600 per well = 0.01). After incubation (48 h; 28 °C), the OD600 was measured (ASYS UVM 340 Biogenet). […] Each well was then replated on YPD agar and incubated for 5 days at 28 °C.

C. parapsilosis CBS10947 = assay: as above; conditions: Lodderomyces parapsilosis, 28 °C; for MFC: 120 h, replated on YPD agar, 5 days, read-out: Minimal fungicidal concentration (MFC); for MIC90: ≥90% growth inhibition, 48 h, YPD, read-out: Minimal inhibitory concentration (MIC90)
Protocol: as §4

C. albicans SC5314 = assay: as above; conditions: Candida albicans, 28 °C; for MFC: 120 h, replated on YPD agar, 5 days, read-out: Minimal fungicidal concentration (MFC); for MIC90: ≥90% growth inhibition, 48 h, YPD, read-out: Minimal inhibitory concentration (MIC90)
Protocol: as §4

C. glabrata ATCC90030 = assay: as above; conditions: Nakaseomyces glabratus, 28 °C; for MFC: 120 h, replated on YPD agar, 5 days, read-out: Minimal fungicidal concentration (MFC); for MIC90: ≥90% growth inhibition, 48 h, YPD, read-out: Minimal inhibitory concentration (MIC90)
Protocol: as §4

[3] = highest concentration (4 × MIC)

Structure (SMILES) | Percentage of cells forming hyphae (C. albicans [1]) | Reduction of adhesion (C. glabrata; [3]) | Reduction of adhesion (C. krusei) | Reduction of adhesion (C. albicans [2]) | Reduction of adhesion (C. parapsilosis; over MIC) | MFC (C. krusei ATCC6258) | MIC90 (C. krusei ATCC6258) | MFC (C. parapsilosis CBS10947) | MIC90 (C. parapsilosis CBS10947) | MFC (C. albicans SC5314) | MIC90 (C. albicans SC5314) | MFC (C. glabrata ATCC90030) | MIC90 (C. glabrata ATCC90030) | Reduction of adhesion (C. glabrata; 2 × MIC and 4 × MIC) | Reduction of adhesion (C. parapsilosis)
CCCCCCCCCn1cc[n+](CO[C@@H]2C[C@H](C)CC[C@H]2C(C)C)c1 [1a, 1-[(1R,2S,5R)-(−)-menthoxymethyl]-3-nonylimidazolium chloride] | < 1% | ~ 40% | approximately 10% | did not influence the adherent properties | did not influence the adherent properties | 25 µM | 6.25 µM | 50 µM | 12.5 µM | 50 µM | 12.5 µM | 25 µM | 12.5 µM |  | 
CCCCCCCCCCn1cc[n+](CO[C@@H]2C[C@H](C)CC[C@H]2C(C)C)c1 [1b, 3-decyl-1-[(1R,2S,5R)-(−)-menthoxymethyl]imidazolium chloride] | < 1% |  | did not significantly reduce | 20–25% |  | 25 µM | 25 µM | 25 µM | 25 µM | 50 µM | 25 µM | 25 µM | 25 µM | ~ 20% | 20–25%
CCCCCCCCCOCn1cc[n+](CO[C@@H]2C[C@H](C)CC[C@H]2C(C)C)c1 [2a, 1-(1R,2S,5R)-(−)-menthoxymethyl-3-nonyloxymethylimidazolium chloride] | 78.2 ± 17.2% | approximately 45% | 10–20% | 20–30% | 30–40% | 12.5 µM | 6.25 µM | 25 µM | 12.5 µM | 25 µM | 12.5 µM | 12.5 µM | 12.5 µM |  | 

Reference: PMC8304783, “Antiadhesive Properties of Imidazolium Ionic Liquids Based on (−)-Menthol Against Candida spp” (International Journal of Molecular Sciences, 2021)
